Read-outs that look alike come from different tables or passages of the source.
Key:
[1] = Partition coefficient (K) in two-phase solvent systems, test tube procedure; assay type: physicochemical
Protocol: Each solvent system was prepared by equilibrating the solvent mixture, excluding the ligand, in a separatory funnel at room temperature. After two clear layers were formed, the two phases were separated. Then, a desired amount of the ligand was added to the organic phase which was then used as the stationary phase. The aqueous phase was used as the mobile phase.
Partition coefficients were measured using the standard test tube procedure as follows: The two-phase solvent system was prepared as described above. An aliquot of 2 mL of each phase, a total of 4 mL, was delivered in a test tube (13 mm ID×100 mm length) where a desired amount of the ligand and 1-2 mg of sample were added. Then, the test tube was stoppered and the contents were mixed until the resolved sample was completely equilibrated between two phases. Using a vortex mixer, it required 10 successive applications at a few second intervals after the sample was dissolved in the solvent. The tube was stand still until clear two layers were formed. If necessary, the tubes were centrifuged for 2-3 min at 1000×g to accelerate the phase separation. An aliquot of each phase, usually 100 μl, was separately diluted with 2 mL of a suitable diluent, usually methanol, and the absorbance determined with a spectrophotometer, (Zeiss, Hanover, Md., USA) at a desired wavelength. The partition coefficient for each component was obtained by the absorbance of the upper phase divided by that of the lower phase. […]

[2] = n-butanol/water two-phase solvent systems, no ligand; stated as background; cited from earlier work
[3] = methyl t-butyl ether / 0.1 M KH2PO4 (1:1), ligand DEHPA 10%, upper/lower phase

In the case of `N[C@@H](Cc1ccc(O)c(O)c1)C(=O)O` (racemic) [DOPA, 3,4-dihydroxyphenylalanine], the “Partition Coefficient (K)” value [1] is reported as 0.01 and the “K value (in words)” value ([1]; Dopa in zwitterionic form, pH-zone-refining run, Example 5) is reported as “extremely low K value”.
In the case of `CCCCC(CC)COP(=O)(O)OCC(CC)CCCC` (stereo not shown) [DEHPA, di-(2-ethylhexyl)phosphoric acid], the “K value of the ligand” value ([1]; ligand almost unilaterally distributed into the organic phase, MBE/aqueous systems) is reported as greater than 100.
In the case of `CNC[C@H](O)c1ccc(O)c(O)c1` [Epinephrine, epinephrine], the “Partition Coefficient (K)” value ([1]; methyl t-butyl ether / 0.1 M NH4OAc and 0.5 M HCl (1:1), ligand DEHPA 1.5%, upper/lower phase) is reported as 0.4, the “Partition Coefficient” value ([1]; solvent system I: nButanol/H2O) is reported as 0.24 and the “Partition Coefficient” value ([1]; solvent system II: nButanol/0.1M NH4OAc) is reported as 0.13. The “Partition Coefficient” value ([1]; solvent system III: MBE/H2O) was 0.06, the “Partition Coefficient” value ([1]; solvent system IV: MBE/0.1M NH4OAc) was 0.16 and the “Partition Coefficient” value ([1]; solvent system V: MBE/DEHPA/0.1M NH4OAc (9:1:10)) was 5.83. For the same molecule, the “Partition Coefficient” value ([1]; solvent system VI: MBE/DEHPA/0.05M HCl (9:1:10)) was 0.01, the “Partition Coefficient” value ([1]; solvent system VII: MBE/DEHPA/0.1M NH4OAc & 0.05M HCl (9:1:10)) was 1.42 and the “partition (in words)” value [2] was “almost exclusively into the aqueous phase”.
In the case of `COc1cc(C(O)CN)ccc1O` (stereo not shown) [Normetanephrine, normetanephrine], the “Partition Coefficient (K)” value [1] is reported as 0.5.
With `NCCc1ccc(O)cc1` [Tyramine, tyramine] the “Partition Coefficient (K)” value [1] was 1.7.
For Ala--Tyr, the “Partition Coefficient (K)” value [1, 3] was 0.5.
In the case of Gly--Tyr, the “Partition Coefficient (K)” value [1, 3] is reported as 0.1.
With Leu--Tyr the “Partition Coefficient (K)” value [1, 3] was 10.
For Tyr--Ala, the “Partition Coefficient (K)” value [1, 3] was 0.8.
With Tyr--Gly the “Partition Coefficient (K)” value [1, 3] was 0.2.
In the case of Tyr--Leu, the “Partition Coefficient (K)” value [1, 3] is reported as 18.
With Tyr--Val the “Partition Coefficient (K)” value [1, 3] was 4.9.
In the case of Val--Tyr, the “Partition Coefficient (K)” value [1, 3] is reported as 2.8.
